Consider 31 compounds from US20240150321A1, “PYRAZOLYLSULFONAMIDE COMPOUNDS AND THEIR USE IN THERAPY” (HOTSPOT THERAPEUTICS, INC., priority 2022, published 2024).

By pIC50 is commonly meant −log10 of the IC50, conventionally taken in molar units.

The target of one assay is Avi-tagged FL MALT-1 (Homo sapiens (Human), UniProt Q9UDY8). Briefly: MALT-1 Fluorogenic Peptide Cleavage Assay (MALT1 inhibition assay). In kind it is biochemical. As to conditions: Ac-LRSR-AMC peptide substrate, 30 min pre-incubation, 90 min reaction at room temperature. In outline:
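Cleavage of Ac-LRSR-AMC, read as fluorescence at 342/441 nm after 90 min at room temperature, with substrate working stocks of 50 μM (Km) or 280 μM (10×Km). Enzyme, Avi-tagged full-length MALT-1 (40 nM stock), was first pre-incubated 30 min with compound in citrate/HEPES pH 6.89 buffer with TCEP, EDTA, CHAPS and 2% DMSO; IC50 fitted from normalised % inhibition.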

In assay [1] the test system is NF-kB reporter in Jurkat cells. Briefly: NF-kB reporter assay in Jurkat cells stimulated with aCD3/aCD28/PMA. In kind it is cell-based. The note with it: read-out: NF-kB Reporter Assay IC50. Summed up:
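Luminescence (One-Glo) from the NF-kB reporter yielded IC50 values. Stimulation lasted 4 h at 37° C with aCD3, aCD28 and PMA (final 5, 5 and 0.03 […]), after 1 h compound pre-exposure of 25,000 Jurkat cells per well in serum-free RPMI.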
(In general: In a reporter assay the amount or activity of a reporter protein is the signal.)

The mark [2] stands for this setting: Homo sapiens, Jurkat cells, 1 hr compound pre-incubation, aCD3/aCD28/PMA stimulation 4 hr, One-Glo readout.

pIC50: −log10 of the molar value. Like-named read-outs stand apart in the source and are kept apart here.

Chain of Avi-tagged FL MALT-1 (Q9UDY8 whole entry): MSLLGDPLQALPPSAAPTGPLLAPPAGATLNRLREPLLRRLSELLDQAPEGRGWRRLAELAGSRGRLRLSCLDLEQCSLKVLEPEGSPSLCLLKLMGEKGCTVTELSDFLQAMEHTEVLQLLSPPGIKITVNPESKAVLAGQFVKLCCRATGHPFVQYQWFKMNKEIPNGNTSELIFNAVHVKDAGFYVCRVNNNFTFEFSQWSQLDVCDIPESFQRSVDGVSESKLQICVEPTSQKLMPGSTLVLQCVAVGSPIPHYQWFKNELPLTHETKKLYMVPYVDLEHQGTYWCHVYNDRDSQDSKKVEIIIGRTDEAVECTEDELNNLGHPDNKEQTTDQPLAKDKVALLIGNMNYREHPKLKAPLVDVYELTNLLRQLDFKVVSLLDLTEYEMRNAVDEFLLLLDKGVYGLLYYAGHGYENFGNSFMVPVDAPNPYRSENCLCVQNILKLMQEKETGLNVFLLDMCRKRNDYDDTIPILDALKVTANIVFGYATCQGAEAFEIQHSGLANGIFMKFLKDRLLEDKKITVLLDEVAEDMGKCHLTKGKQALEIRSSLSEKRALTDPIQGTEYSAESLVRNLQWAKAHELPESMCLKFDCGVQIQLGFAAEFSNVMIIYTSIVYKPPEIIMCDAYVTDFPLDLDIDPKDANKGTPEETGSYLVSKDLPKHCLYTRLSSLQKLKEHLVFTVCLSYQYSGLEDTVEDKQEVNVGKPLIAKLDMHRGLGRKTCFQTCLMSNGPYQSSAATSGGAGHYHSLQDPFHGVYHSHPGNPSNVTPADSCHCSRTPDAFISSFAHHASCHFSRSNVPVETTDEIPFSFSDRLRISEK

Take `COc1ccc2cnn(C)c2c1NS(=O)(=O)c1cnn(-c2cc(C3(F)CC(F)C3)ccn2)c1` (single isomer, unassigned) [Compound I-377, 1-(4-(1,3-difluorocyclobutyl)pyridin-2-yl)-N-(6-methoxy-1-methyl-1H-indazol-7-yl)-1H-pyrazole-4-sulfonamide]: the pIC50 was 6.00 to 6.40 against Avi-tagged FL MALT-1 and over 6.40 in assay [1] (setting [2]).
For `Cc1n[nH]c2cccc(NS(=O)(=O)c3cnn(-c4cc(C(F)(F)F)ccn4)c3)c12` [Compound I-73, N-(3-Methyl-1H-Indazol-4-yl)-1-(4-(Trifluoromethyl)Pyridin-2-yl)-1H-Pyrazole-4-Sulfonamide], the figures for the negative-log IC50 (pIC50) (at Avi-tagged FL MALT-1; in assay [1] (setting [2])) were 5.60 to 6.00 and over 6.40, respectively.
For `COc1ccc2cnn(C)c2c1NS(=O)(=O)c1cnn(-c2cc(C3(F)CCC3)ccn2)c1` [Compound I-144, 1-(4-(1-fluorocyclobutyl)pyridin-2-yl)-N-(6-methoxy-1-methyl-1H-indazol-7-yl)-1H-pyrazole-4-sulfonamide], the negative-log IC50 (pIC50) was at least 6.40 against Avi-tagged FL MALT-1 and over 6.40 in assay [1] (Homo sapiens, Jurkat).
In the case of `O=S(=O)(Nc1cccc2cnn(C(F)F)c12)c1cnn(-c2cc(C(F)(F)F)ccn2)c1` [Compound I-239], the pIC50 (against Avi-tagged FL MALT-1; in assay [1] (setting [2])) was under 5.60 throughout.
For `CCc1ccc2cnn(C)c2c1NS(=O)(=O)c1cnn(-c2cc(C(F)(F)F)ccn2)c1` [Compound I-14, N-(6-Ethyl-1-Methyl-1H-Indazol-7-yl)-1-(4-(Trifluoromethyl) Pyridin-2-yl)-1H-Pyrazole-4-Sulfonamide], the negative-log IC50 (pIC50) is at least 6.40 at Avi-tagged FL MALT-1 and over 6.40 in assay [1] (setting [2]).
In the case of `COc1ccc2cnn(C)c2c1NS(=O)(=O)c1cnn(-c2cc(N3CC(C(N)=O)C3)ccn2)c1` [Compound I-459], the pIC50 (on Avi-tagged FL MALT-1; in assay [1] (setting [2])) was under 5.60 each time.
Take `COc1ccc2cnn(C)c2c1NS(=O)(=O)c1cnn(-c2cc(N3CCOCC3)ccn2)c1` [Compound I-384]: the pIC50 on Avi-tagged FL MALT-1 is under 5.60; in assay [1] (setting [2]) it was over 6.40.
For `Cn1ncc2cccc(NS(=O)(=O)c3cnn(-c4cc(C5(C#N)CCC5)ccn4)c3)c21` [Compound I-456], the results for the pIC50 (against Avi-tagged FL MALT-1; in assay [1] (setting [2])) were under 5.60 and over 6.40, respectively.
Take `Cn1ncc2cccc(NS(=O)(=O)c3cnn(-c4cc(N5CC(F)(F)C5)ccn4)c3)c21` [Compound I-439, 1-[4-(3,3-difluoroazetidin-1-yl)pyridin-2-yl]-N-(1-methylindazol-7-yl) pyrazole-4-sulfonamide]: the results for the negative-log IC50 (pIC50) (against Avi-tagged FL MALT-1; in assay [1] (setting [2])) were under 5.60 and over 6.40, respectively.
Regarding `COc1ccc2cnn(C)c2c1NS(=O)(=O)c1cnn(-c2cc(C3(C#N)CC3)ccn2)c1` [Compound I-470, 1-[4-(1-cyanocyclopropyl)pyridin-2-yl]-N-(6-methoxy-1-methylindazol-7-yl)pyrazole-4-sulfonamide], the pIC50 against Avi-tagged FL MALT-1 is 6.00 to 6.40; in assay [1] (Homo sapiens, Jurkat), over 6.40.
Consider `COCCn1ncc2cccc(NS(=O)(=O)c3cnn(-c4cc(C5CC5)ccn4)c3)c21` [Compound I-102, 1-(4-cyclopropylpyridin-2-yl)-N-(1-(2-methoxyethyl)-1H-indazol-7-yl)-1H-pyrazole-4-sulfonamide], for which the pIC50 (against Avi-tagged FL MALT-1; in assay [1] (setting [2])) was under 5.60 each time.
With `CCc1ccc2cnn(C)c2c1NS(=O)(=O)c1cnn(-c2cc(Cl)ccn2)c1` [Compound I-36, 1-(4-Chloropyridin-2-yl)-N-(6-Ethyl-1-Methyl-1H-indazol-7-yl)-1H-Pyrazole-4-Sulfonamide], the results for the negative-log IC50 (pIC50) (on Avi-tagged FL MALT-1; in assay [1] (setting [2])) were at least 6.40 and over 6.40, respectively.
For the compound `COc1ccc2cnn(C)c2c1NS(=O)(=O)c1cnn(-c2cc(C(F)F)ccn2)c1` [Compound I-133, 1-(4-(Difluoromethyl)Pyridin-2-yl)-N-(6-Methoxy-1-Methyl-1H-Indazol-7-yl)-1H-Pyrazole-4-Sulfonamide], the figures for the pIC50 (against Avi-tagged FL MALT-1; in assay [1] (setting [2])) were at least 6.40 and over 6.40, respectively.
The like results for `CCc1ccc2cnn(C)c2c1NS(=O)(=O)c1cnn(-c2ccnc(C(F)(F)F)c2)c1C` [Compound I-30, N-(6-Ethyl-1-Methyl-1H-Indazol-7-yl)-5-Methyl-1-(2-(Trifluoromethyl)Pyridin-4-yl)-1H-Pyrazole-4-Sulfonamide] were, in that order, 6.00 to 6.40 and 5.60 to 6.00.
For the compound `COc1ccc2cnn(C)c2c1NS(=O)(=O)c1cnn(-c2cc(C3COC3)ccn2)c1` [Compound I-262, N-(6-methoxy-1-methyl-1H-indazol-7-yl)-1-(4-(oxetan-3-yl)pyridin-2-yl)-1H-pyrazole-4-sulfonamide], the negative logarithm of the IC50 (pIC50) on Avi-tagged FL MALT-1 was 6.00 to 6.40; in assay [1] (setting [2]), over 6.40.
In the case of `CO[C@@]1(c2ccnc(-n3cc(S(=O)(=O)Nc4cccc5cnn(C)c45)cn3)c2)CCOC1` [Compound I-311], the results for the negative-log IC50 (pIC50) (at Avi-tagged FL MALT-1; in assay [1] (setting [2])) were under 5.60 and over 6.40, respectively.
As to `Cc1n[nH]c2cccc(NS(=O)(=O)c3cnn(-c4cc(C5(O)CCC5)ccn4)c3)c12` [Compound I-255, 1-[4-(1-hydroxycyclobutyl)pyridin-2-yl]-N-(3-methyl-1H-indazol-4-yl)pyrazole-4-sulfonamide], the negative-log IC50 (pIC50) was under 5.60 at Avi-tagged FL MALT-1 and over 6.40 in assay [1] (setting [2]).
In the case of `COc1ccc2cnn(C)c2c1NS(=O)(=O)c1cnn(-c2cc(N3CC4CC(C4)C3)ccn2)c1` [Compound I-404], the values for the negative-log IC50 (pIC50) (at Avi-tagged FL MALT-1; in assay [1] (setting [2])) were under 5.60 and over 6.40, respectively.
Turning to `COc1cnc(C(F)(F)F)cc1-n1cc(S(=O)(=O)Nc2c(OC)ccc3cnn(C)c23)cn1` [Compound I-90, N-(6-Methoxy-1-Methyl-1H-Indazol-7-yl)-1-(5-Methoxy-2-(Trifluoromethyl)Pyridin-4-yl)-1H-Pyrazole-4-Sulfonamide], the values for the pIC50 (on Avi-tagged FL MALT-1; in assay [1] (setting [2])) were at least 6.40 and over 6.40, respectively.
`CN1CCN(c2ccnc(-n3cc(S(=O)(=O)Nc4cccc5cnn(C)c45)cn3)c2)C1=O` [Compound I-322]: the negative-log IC50 (pIC50) on Avi-tagged FL MALT-1 was under 5.60; in assay [1] (setting [2]), over 6.40.
As to `COc1ccc2cnn(C)c2c1NS(=O)(=O)c1cnn(-c2cnn3c2CN(C)CC3)c1` [Compound I-468, N-(6-methoxy-1-methylindazol-7-yl)-1-{5-methyl-4H,6H,7H-pyrazolo[1,5-a]pyrazin-3-yl}pyrazole-4-sulfonamide], the pIC50 (against Avi-tagged FL MALT-1; in assay [1] (setting [2])) was under 5.60 each time.
On to `COc1ncc2cnn(C)c2c1NS(=O)(=O)c1cnn(-c2cc(N3CCOCC3)ccn2)c1` [Compound I-416], for which the pIC50 against Avi-tagged FL MALT-1 was under 5.60; in assay [1] (setting [2]), 5.60 to 6.00.
As to “N-(6-Methoxy-1-Methyl-1H-Indazol-7-yl)-1-(4-(Trifluoromethyl)Pyridin-2-yl)-1H-Pyrazole-4-Sulfonamide [Compound I-5]”, the negative logarithm of the IC50 (pIC50) against Avi-tagged FL MALT-1 was at least 6.40; in assay [1] (Jurkat cells, 1 hr compound pre-incubation, aCD3/aCD28/PMA stimulation 4 hr, One-Glo readout), over 6.40.
With `COc1ccnc(-n2cc(S(=O)(=O)Nc3cccc4cnn(C)c34)cn2)c1` [Compound I-146, 1-(4-methoxypyridin-2-yl)-N-(1-methylindazol-7-yl)pyrazole-4-sulfonamide], the figures for the negative-log IC50 (pIC50) (against Avi-tagged FL MALT-1; in assay [1] (setting [2])) were under 5.60 and over 6.40, respectively.
For the compound `Cn1ncc2cccc(NS(=O)(=O)c3cnn(-c4cc(C5CCO5)ccn4)c3)c21` (centres unmarked) [Compound I-265, N-(1-methylindazol-7-yl)-1-[4-(oxetan-2-yl)pyridin-2-yl]pyrazole-4-sulfonamide], the pIC50 against Avi-tagged FL MALT-1 was under 5.60; in assay [1] (setting [2]) it was over 6.40.
For `CCC(C)(OC)c1ccnc(-n2cc(S(=O)(=O)Nc3c(OC)ccc4cnn(C)c34)cn2)c1` (single isomer, unassigned) [Compound I-360, N-(6-methoxy-1-methyl-1H-indazol-7-yl)-1-(4-(2-methoxybutan-2-yl)pyridin-2-yl)-1H-pyrazole-4-sulfonamide], the figures for the negative-log IC50 (pIC50) (against Avi-tagged FL MALT-1; in assay [1] (setting [2])) were at least 6.40 and over 6.40, respectively.
Turning to `CCN(c1c(OC)ccc2cnn(C)c12)S(=O)(=O)c1cnn(-c2ccnc(C(F)(F)F)c2)c1` [Compound I-26, N-(6-Methoxy-1-Methyl-1H-Indazol-7-yl)-N-Ethyl-1-(2-(Trifluoromethyl)Pyridin-4-yl)-1H-Pyrazole-4-Sulfonamide], the negative-log IC50 (pIC50) was at least 6.40 on Avi-tagged FL MALT-1 and over 6.40 in assay [1] (setting [2]).
The like results for `COc1ccc2cnn(C)c2c1NS(=O)(=O)c1cnn(-c2cc(C3(F)CC(C)C3)ccn2)c1` (centres unmarked) [Compound I-413, 1-(4-(1-fluoro-3-methylcyclobutyl)pyridin-2-yl)-N-(6-methoxy-1-methyl-1H-indazol-7-yl)-1H-pyrazole-4-sulfonamide] were, in that order, 6.00 to 6.40 and over 6.40.
With `Cc1ccnc(-n2cc(S(=O)(=O)N(C)c3cccc4[nH]nc(C)c34)cn2)c1` [Compound I-66, N-Methyl-N-(3-Methyl-1H-Indazol-4-yl)-1-(4-Methylpyridin-2-yl)-1H-Pyrazole-4-Sulfonamide], the negative logarithm of the IC50 (pIC50) (against Avi-tagged FL MALT-1; in assay [1] (setting [2])) was under 5.60 throughout.
With `COCCn1ncc2cccc(NS(=O)(=O)c3cnn(-c4cc(C(F)(F)F)ccn4)c3)c21` [Compound I-98, N-(1-(2-Methoxyethyl)-1H-Indazol-7-yl)-1-(4-(Trifluoromethyl)Pyridin-2-yl)-1H-Pyrazole-4-Sulfonamide], the pIC50 (against Avi-tagged FL MALT-1; in assay [1] (setting [2])) was under 5.60 throughout.
`Cn1ncc2cccc(NS(=O)(=O)c3cnn([C@H]4CCCN(CC(F)(F)F)C4)c3)c21` [Compound I-329]: the results for the negative logarithm of the IC50 (pIC50) (on Avi-tagged FL MALT-1; in assay [1] (setting [2])) were under 5.60 and 5.60 to 6.00, respectively.
